Laboratory results published in US10137130B2, “Methods of treatment of malignancies” (Celgene Corporation, priority 2016, dated 2018).

Key:
[1] = system: rrAML with an IDH2 mutation; assay: FLT3 mutation status and Compound 1 response in rrAML patients of the Example 1 trial (FoundationOne Heme panel, LabPMM PCR); assay type: in vivo, human
Experimental: A subset of the clinical samples from the trial described in Example 1 were analyzed at screening. Sample types included bone marrow, peripheral blood and mononuclear cells isolated from bone marrow or peripheral blood. DNAs were extracted from these samples and sequenced at Foundation Medicine (Heme Panel, see http://foundationone.com/learn.php) using next generation sequencing technique.
Overall response rate (ORR), the primary efficacy endpoint, is defined as the rate of responders including complete remission (CR), CR with incomplete platelet recovery (CRp), marrow CR (mCR) (morphologic leukemia-free state [MLFS] for subjects with AML), CR with incomplete hematologic recovery (CRi), and partial remission (PR). Other measures of clinical activity including complete remission rate (CRR), duration of remission/response, event-free survival, overall survival, and time to remission/response will be summarized.
FoundationOne Heme panel analysis was performed on 100 screening samples from rrAML patients in the trial described in Example 1. Sample types included peripheral blood and bone marrow.
Therefore, the lower frequency reported in the above study is likely due to lack of recruitment of patients with FLT3-ITD mutations.
Tables 8 provides a contingency table indicating lack of statistical significance for lower ORR observed in efficacy evaluable patients presenting with FLT3-ITD and Table 9 provides a contingency table indicating statistical significance of lower ORR seen in patients presenting with either FLT3-ITD or FLT3 point mutation (PM).

2-HG plasma levels = assay: Phase 1/2 study AG221-C-001: pharmacodynamic response (2-HG plasma levels); assay type: in vivo, human
Experimental: 2HG can be detected in a sample by the methods of PCT Publication No. WO 2011/050210 and US Publication No. US2012/0121515 hereby incorporated by reference in their entirety, or by analogous methods. In an exemplary method, 2HG can be detected in a sample by LC/MS. The sample is mixed 80:20 with methanol, and centrifuged at 3,000 rpm for 20 minutes at 4 degrees Celsius. The resulting supernatant can be collected and stored at −80 degrees Celsius prior to LC-MS/MS to assess 2-hydroxyglutarate levels. A variety of different liquid chromatography (LC) separation methods can be used. Each method can be coupled by negative electrospray ionization (ESI, −3.0 kV) to triple-quadrupole mass spectrometers operating in multiple reaction monitoring (MRM) mode, with MS parameters optimized on infused metabolite standard solutions. Metabolites can be separated by reversed phase chromatography using 10 mM tributyl-amine as an ion pairing agent in the aqueous mobile phase, according to a variant of a previously reported method (Luo et al. J Chromatogr A 1147, 153-64, 2007). One method allows resolution of TCA metabolites: t=0, 50% B; t=5, 95% B; t=7, 95% B; t=8, 0% B, where B refers to an organic mobile phase of 100% methanol. Another method is specific for 2-hydroxyglutarate, running a fast linear gradient from 50%-95% B (buffers as defined above) over 5 minutes. A Synergi Hydro-RP, 100 mm×2 mm, 2.1 μm particle size (Phenomonex) can be used as the column, as described above. Metabolites can be quantified by comparison of peak areas with pure metabolite standards at known concentration. Metabolite flux studies from ^13C-glutamine can be performed as described, e.g., in Munger et al. Nat Biotechnol 26, 1179-86, 2008. […]
Subjects in the dose escalation phase and Part 1 Expansion also will undergo PK/PD assessments over a 10-hour period on C1D15, C2D1, and C4D1. […] Available bone marrow biopsy samples also will be assessed for 2-HG and α-KG levels. […]

[2] = FLT3-ITD+ efficacy evaluable patients
[3] = FLT3-ITD+/PM+ patients (either FLT3-ITD or FLT3 point mutation)
[4] = FLT3-ITD− efficacy evaluable patients

Structure (SMILES): CC(C)(O)CNc1nc(Nc2ccnc(C(F)(F)F)c2)nc(-c2cccc(C(F)(F)F)n2)n1 [COMPOUND 1, 2-methyl-1-[(4-[6-(trifluoromethyl)pyridin-2-yl]-6-{[2-(trifluoromethyl)pyridin-4-yl]amino}-1,3,5-triazin-2-yl)amino]propan-2-ol]
- No Response (number of patients) [1, 2]: 3
- Response (number of patients) [1, 2]: 0
- ORR ([1]; FLT3-ITD+ patients): 0%
- No Response (number of patients) [1, 3]: 9
- Response (number of patients) [1, 3]: 1
- ORR ([1]; FLT3-ITD+/PM+ patients (mFLT3)): 10.0%
- No Response (number of patients) [1, 4]: 38
- Response (number of patients) [1, 4]: 33
- No Response (number of patients) ([1]; FLT3-ITD−/PM− patients): 42
- Response (number of patients) ([1]; FLT3-ITD−/PM− patients): 40
- Odds ratio (response, mFLT3 vs FLT3-ITD−/PM−) ([1]; Fisher's Exact test, p = 0.039): 0.117
- Odds ratio (response, FLT3-ITD+ vs FLT3-ITD−) ([1]; Fisher's Exact test, p = 0.249): 0.164
- reduction in 2-HG plasma levels (2-HG plasma levels; by Day 1 of Cycle 2, subjects of AG221-C-001): sustained reduction
- inhibition of 2-HG plasma levels (2-HG plasma levels; most subjects with R140Q mutation, all doses): up to 98%
- exposure and inhibition of 2-HG in relation to dose (2-HG plasma levels; subjects with R172K mutation): Increasing dose is associated with higher exposure and inhibition of 2-HG
